Laboratory results taken from publication PMC6943558, “Covalent Inhibition of the Histamine H3 Receptor” (Molecules, 2019).
Where two headings read alike, the source gives them in different places.

Experiments:
[1] = target: T1, hH3R (human histamine H3 receptor) (Homo sapiens, UniProt Q9Y5N1); experiment: [3H]NAMH displacement, cell homogenates; assay type: biochemical
T1 construct: gene HRH3; transiently transfected cDNA, HEK293T cell homogenates

[2] = target: T2, Nanoluc-H4R (histamine H4 receptor) (Homo sapiens, UniProt Q9H3N8); experiment: NanoBRET displacement of clobenpropit-BODIPY; assay type: cell-based; conditions: fluorescent tracer clobenpropit-BODIPY
T2 construct: gene HRH4; NanoLuc reporter fusion (Nluc-H4R); details not in the main text

[3] = target: T1, hH3R (human histamine H3 receptor); experiment: […]GTPγS binding, cell homogenates; assay type: biochemical
[4] = target: T1, hH3R (human histamine H3 receptor); experiment: […]GTPγS binding, cell homogenates; assay type: biochemical; remark: listed apart in the source

T1 sequence (Q9Y5N1 whole entry): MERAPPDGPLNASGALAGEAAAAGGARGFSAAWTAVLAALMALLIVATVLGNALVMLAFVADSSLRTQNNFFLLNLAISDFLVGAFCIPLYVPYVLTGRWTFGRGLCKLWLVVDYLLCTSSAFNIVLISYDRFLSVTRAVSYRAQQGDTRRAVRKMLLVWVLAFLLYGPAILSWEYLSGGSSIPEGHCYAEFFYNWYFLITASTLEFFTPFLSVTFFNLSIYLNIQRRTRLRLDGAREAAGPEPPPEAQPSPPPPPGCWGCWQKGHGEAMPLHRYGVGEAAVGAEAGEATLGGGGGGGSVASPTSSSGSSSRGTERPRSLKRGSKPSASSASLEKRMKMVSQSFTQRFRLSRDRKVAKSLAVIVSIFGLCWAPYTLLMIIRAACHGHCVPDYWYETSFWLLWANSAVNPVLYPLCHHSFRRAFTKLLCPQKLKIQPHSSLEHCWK

| Structure (SMILES) | Ki ([1]; read-out: pKi (converted)) | also measured |
| --- | --- | --- |
| C=Cc1nc(-c2ccccc2)cc(N2CCN(C)CC2)n1 [compound 1, VUF14480] | > 10000 nM |  |
| Cc1nc(-c2ccccc2)cc(N2CCN(C)CC2)n1 [compound 2, 2] | 79.4 nM |  |
| Cc1cc(N2CCN(C3CCC3)CC2)nc(N)n1 [compound 12, 12] | 316 nM |  |
| C=Cc1nc(C(C)C)cc(N2CC(N(C)C)C2)n1 [compound 21, 21] | > 10000 nM |  |
| C=Cc1nc(C(C)C)cc(N2CCN(C3CCC3)CC2)n1 [compound 22, 22] | 3160 nM |  |
| C=Cc1nc(C)cc(N2CCN(C3CCC3)CC2)n1 [compound 23, 23] | 3980 nM |  |
| Cc1nc(C(C)C)cc(N2CC(N(C)C)C2)n1 [compound 34, 34] | > 10000 nM |  |
| CCc1nc(C(C)C)cc(N2CC(N(C)C)C2)n1 [compound 35, 35] | > 10000 nM |  |
| CCc1nc(C(C)C)cc(N2CCN(C3CCC3)CC2)n1 [compound 37, 37] | 3160 nM |  |
| Nc1cccc(N2CCN(C3CCC3)CC2)c1 [compound 42, 3-(4-Cyclobutylpiperazin-1-yl)aniline] | 1260 nM | no tracer displacement up to 10 μM [2]: > 10 µM |
| S=C=Nc1cccc(N2CCN(C3CCC3)CC2)c1 [compound 44, 1-Cyclobutyl-4-(3-isothiocyanatophenyl)piperazine] | 316 nM | EC50 [3]: 79.4 nM; IC50 [4]: 794 nM; no tracer displacement up to 10 μM [2]: > 10 µM |
| NCCc1c[nH]cn1 [histamine] |  | Ki ([1]; 50 mM Tris-HCl pH 7.4, 25 °C, vehicle-pretreated homogenates): Radioligand displacement curves of [^3H]NAMH with histamine on cell homogenates |

The next lines start with results.

| Ki ([1]; read-out: pKi (converted)) | Structure (SMILES) | also measured |
| --- | --- | --- |
| 50.1 nM | CC(C)c1cc(N2CC(N(C)C)C2)nc(N)n1 [compound 10, 10] |  |
| 200 nM | CC(C)c1cc(N2CCN(C3CCC3)CC2)nc(N)n1 [compound 11, 11] |  |
| > 10000 nM | C#Cc1nc(C)cc(N2CCN(C3CCC3)CC2)n1 [compound 20, 20] |  |
| 1260 nM | Cc1nc(C(C)C)cc(N2CCN(C3CCC3)CC2)n1 [compound 36, 36] |  |
| 631 nM | O=C(CCl)Nc1cccc(N2CCN(C3CCC3)CC2)c1 [compound 43, 43] |  |
